# Experimental data from PubChem BioAssay (NCI).
#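 96-well plates; 48 h exposure; 5 concentrations. Endpoints by linear interpolation between flanking doses. Not reached: highest tested concentration assigned. Here, GI50 denotes the concentration required for 50% inhibition of growth. At the TGI there is no net growth.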 Where a SMILES comes first, the peptide text is derived from it. [ ]: non-standard residue; d: D form. The star is where a group is joined. NMeF = CN[CH](Cc1ccccc1)C(=O)O; NMeV = CN[CH](C(=O)O)C(C)C; Boc = CC(C)(C)OC(=O)*; OBn = c1ccc(CO*)cc1
# What was measured:
# Test in all cases: NCI anticancer screen, dose series, 48 h
# [1] = tested on: PC-3 prostate
# [2] = tested on: MDA-MB-435
# [3] = tested on: SNB-75 CNS
# [4] = tested on: 786-0 renal
# [5] = tested on: A498 renal
# [6] = tested on: OVCAR-3 ovarian
# [7] = tested on: DU-145 prostate
# [8] = tested on: M14 melanoma
# [9] = tested on: SF-268 CNS
# [10] = tested on: HT29 colon
# [11] = tested on: HS 578T breast
Compound,TGI [1],TGI [2],TGI [3],TGI [4],TGI [5],TGI [6],TGI [7],TGI [8],TGI [9],TGI [10],GI50 [1],GI50 [2],GI50 [6],GI50 [7],GI50 [10],TGI [11]
C=C1c2nc3ccccc3n2C=C(c2ccc(Cl)cc2)N1c1ccccc1,> 100 µM,> 100 µM,15.9 µM,26 µM,> 100 µM,38.5 µM,> 100 µM,36.4 µM,,,,,,,,
CC(C)C(NC(=O)OC(C)(C)C)C(=O)N(C)C(Cc1ccccc1)C(=O)N(C)C(C(=O)N(C)C(C(=O)OCc1ccccc1)C(C)C)C(C)C (centres undefined) (Boc-V[NMeF][NMeV][NMeV]-OBn; configuration not given here),,,,> 100 µM,,> 100 µM,,> 100 µM,> 100 µM,> 100 µM,,,,,,
CSC(=S)N(C)NC(=O)c1cccc(C(=O)NN(C)C(=S)SC)n1,,,98 µM,91.8 µM,> 100 µM,,,> 100 µM,43.9 µM,> 100 µM,,,,,,
Sc1nnc(-c2ccccc2Nc2ccccc2-c2nnc(S)n2-c2ccccc2)n1-c1ccccc1,> 100 µM,53 µM,90.8 µM,> 100 µM,,> 100 µM,> 100 µM,> 100 µM,> 100 µM,> 100 µM,,,,,,
CN(C)c1nc(N(C)C)nc(N(C)CN(C)c2nc(N(C)C)nc(N(C)C)n2)n1,,,> 100 µM,32.9 µM,> 100 µM,> 100 µM,,> 100 µM,> 100 µM,> 100 µM,,,,,,
COc1ccc(C2C(C(=O)O)=C(COC(C)=O)Oc3cc4c(cc32)OCO4)cc1 (centres undefined),,,> 100 µM,,,> 100 µM,,> 100 µM,,> 100 µM,,,,,,
CC(C)C(/C=C/c1ccccc1)=N\NC(=O)N/N=C(/C=C/c1ccccc1)C(C)C,,,92.5 µM,41.9 µM,,,,> 100 µM,> 100 µM,> 100 µM,,,,,,
NCCCCNCCCN,> 100 µM,> 100 µM,> 100 µM,> 100 µM,> 100 µM,> 100 µM,> 100 µM,> 100 µM,> 100 µM,> 100 µM,,,,,,
CC(=O)Nc1ccc(-c2nnc(SCC(=O)Nc3ccccc3[N+](=O)[O-])o2)cc1,,,> 100 µM,> 100 µM,,> 100 µM,,> 100 µM,> 100 µM,> 100 µM,,,,,,
O=C(/C=C/c1cccs1)c1ccsc1,59.1 µM,39.8 µM,89 µM,> 100 µM,> 100 µM,,> 100 µM,> 100 µM,> 100 µM,41.7 µM,,,,,,
NCCCn1c2c(c3ccc([N+](=O)[O-])cc3c1=O)C(=O)c1cc3c(cc1-2)OCO3,3.56 µM,3.28 µM,,,,3.21 µM,1.48 µM,,,> 100 µM,1.17 µM,0.592 µM,0.886 µM,< 0.01 µM,0.148 µM,
O=C(c1ccc(Cl)cc1)N(C(=S)N1CCN(c2ccccn2)CC1)c1ccccc1,,,> 100 µM,> 100 µM,,> 100 µM,,> 100 µM,> 100 µM,> 100 µM,,,,,,
CC(=O)OCC1OC(OCC2OC(N3C(=S)N[C@H]([C@@H](O)[C@H](O)[C@H](O)CO)[C@H]3O)C(OC(C)=O)C(OC(C)=O)C2OC(C)=O)C(OC(C)=O)C(OC(C)=O)C1OC(C)=O (some centres undefined),> 100 µM,> 100 µM,,> 100 µM,> 100 µM,> 100 µM,> 100 µM,> 100 µM,> 100 µM,> 100 µM,,,,,,
O=c1c2cc(-c3ccccc3)cnc2sn1-c1ccc([N+](=O)[O-])cc1,> 100 µM,> 100 µM,> 100 µM,> 100 µM,> 100 µM,60.2 µM,> 100 µM,> 100 µM,> 100 µM,> 100 µM,,,,,,
Oc1[nH]c2ccccc2c1N=NC(=S)N1CCCCCC1,10.6 µM,3.71 µM,4.34 µM,2.63 µM,2.3 µM,1.49 µM,10.5 µM,2.52 µM,11.8 µM,10.8 µM,,,,,,
FC1CCN(C2(c3cccs3)CCCCC2)CC1,> 100 µM,> 100 µM,> 100 µM,> 100 µM,> 100 µM,> 100 µM,> 100 µM,> 100 µM,,> 100 µM,,,,,,
O=C1CCC2=C(CCC2)N1CCc1ccc2c(c1)OCO2,> 100 µM,,> 100 µM,> 100 µM,,,> 100 µM,> 100 µM,> 100 µM,> 100 µM,,,,,,> 100 µM
CC(C)(C)OC(=O)NC(CCCCNC(=O)OCc1ccccc1)C(=O)NC(CCCCNC(=O)OCc1ccccc1)C(=O)ON1C(=O)CCC1=O (centres undefined),> 100 µM,,> 100 µM,> 100 µM,,,,> 100 µM,,> 100 µM,,,,,,> 100 µM
C[C@]12CCC(=O)C=C1CC[C@@H]1[C@@H]2C(=O)C[C@@]2(C)[C@H]1CC[C@]2(O)C(=O)CO,,,> 100 µM,> 100 µM,> 100 µM,> 100 µM,,> 100 µM,> 100 µM,> 100 µM,,,,,,
